Reference: paper PMC5573760 (Cancer Chemotherapy and Pharmacology, 2017)

Tests used:
clinical = details: male, human, in vivo; for clearance: CL (total body clearance); for Tmax: t max; for half-life: t ½ (terminal half-life)
Procedure: (§1) All subjects gave written informed consent; the study was conducted at PRA Health Sciences (Zuidlaren, The Netherlands) in accordance with the Declaration of Helsinki and was approved by an accredited institutional ethics committee (Medisch Ethische Toetsings Commissie, Assen, The Netherlands).
(§2) Subjects remained fasting until 2-h after the end of the infusion. Volunteers stayed in-house until 14 days after the application and subsequently urine and feces were collected for 24-h on Day 16, 20, 27 and 34 if necessary, cf. below.
(§3) Urine was collected pre-dose, at 0–12-h and 12–24 h after the start of the infusion and thereafter over 24-h intervals on Day 2 to Day 14 as well as on Day 16, 20, 27 and 34 (±1 day). Cumulative 24-h fecal samples were collected from Day 1 (day of infusion) to Day 14 and as well as on Day 16, 20, 27 and 34 (±1 day). […] The excreted radioactivity between ambulant visits during the prolongation phase of the clinical study was calculated using interpolation to get a more realistic total excretion value of all subjects (see "Pharmacokinetic analysis").
All samples were frozen at −70 °C and analyzed within 60 days of sample collection.
(§4) For blood/plasma ratio determination, total radioactivity in urine and feces well as data from HPLC analysis data from radioactivity measurement by liquid scintillation counting (LSC) were considered. The amount of radioactivity recovered in the excreta (A E) was related to the administered radioactive dose to establish the radioactive balance. Arithmetic means and coefficients of variation (CV) were calculated for these percentages. […] Cumulative excretion was calculated as sum of the collection intervals. The elimination of the total radioactivity in urine and feces for time-points beyond day 14 was performed by log-linear extrapolation between analyzed time-points. Amounts of radioactivity excreted in urine and feces between two ambulant visits were calculated per interpolated day by linear interpolation of log-transformed excretion data separately per matrix (lnA E(interpolated day) = Δdays × [lnA E(Visit i + 1) − lnA E(Visit i)]/[day (Visit i + 1) − day (Visit i)] + lnA E(Visit i), with A E given as amount of radioactivity excreted in matrix per day and Δdays being the difference between the calculated day and the last available visit with A E > 0). In case no feces sample was provided on an ambulant visit, this visit was neglected for interpolation. A similar approach has been described earlier. The concentration/amount for each component of each sample/time-point was calculated by multiplying the total radioactivity concentration/amount of each sample with %-area of each component obtained after off-line HPLC separation. The amount of radioactivity in urine and feces at late time-points where no component was detected was distributed in the same percentage to the component (s) present at the time-point before.
Compartment-free analysis was performed employing WinNonlin software (version 5.3, Pharsight Certara, Princton, NJ, USA).
Pharmacokinetic parameters were evaluated by descriptive data analysis without formal hypothesis testing by calculating either medians (t max, t last) or geometric means and %CV (remaining parameters). Excretion data (urine, feces, total) were evaluated by arithmetic means.

[1] = type: in vivo, human
Procedure: as §1, §2, §3
After pooling and homogenization of urine and feces samples per time interval, aliquots were stored at −20 °C for total radioactivity determination and at −70°C for metabolic profiling (including blood/plasma samples). For determination of total radioactivity, samples were analyzed with a Perkin Elmer Tri-Carb™ 3100 TR liquid scintillation analyzer (Perkin Elmer, Waltham, MA, USA) with quenching correction. For metabolite profiling, plasma samples were treated with a mixture of acetonitrile (ACN) +0.2% acetic acid, after shaking and centrifugation, the supernatant was concentrated. Urine and feces samples were treated with solid-phase extraction (Waters HLB 30 mg, 1 mL, Waters, Milford, MA, USA) and liquid–liquid extraction (ACN + 0.2% trifluoroacetic acid/water, 80:20 volume/volume), respectively. Subsequently samples from plasma, urine and feces were analyzed by HPLC-LSC on Synergi Polar 4 µm 150 × 2 mm (Phenomenex, Aschaffenburg, Germany) with off-line radioactivity detection by Microbeta^2™ Plus liquid scintillation counter with Ultima Flo™ AP scintillation fluid (Packard Instrument BV, Groningen, The Netherlands).
as §4, with “interpolation.” for “interpolation. A similar approach has been described earlier. The concentration/amount for each component of each sample/time-point was calculated by multiplying the total radioactivity concentration/amount of each sample with %-area of each component obtained after off-line HPLC separation. The amount of radioactivity in urine and feces at late time-points where no component was detected was distributed in the same percentage to the component (s) present at the time-point before.”

[2] = tested on: breast Cancer Resistance Protein (BCRP); parameters: method as in Bayer AG, data on file; details: in vitro; ref Bayer AG, data on file; cited from earlier work
cytochrome P450 3A4 = tested on: cytochrome P450 3A4; parameters: method as in Bayer AG, data on file; details: in vitro, humans; ref Bayer AG, data on file; cited from earlier work
PI3K-δ = details: cited from earlier work
[3] = whole blood, range of 6 subjects

COc1c(OCCCN2CCOCC2)ccc2c1N=C(NC(=O)c1cnc(N)nc1)N1CCN=C21 [Copanlisib, copanlisib]
AUC (0–t last) of total radioactivity (%) covered by the component, average (clinical): about 84%
CL (total body clearance), geometric mean (%CV) (clinical; iv): 24.8 (41.3%) L/h
t ½ (terminal half-life), geometric mean (%CV) (clinical; iv): 52.1 (20.9%) h
t ½ (terminal half-life), range (clinical; iv): 40.4 to 67.5 h
clearance (clinical; iv, geometric mean (%CV)): ~413 mL/min
clearance (clinical; iv, range): 237 to 680 mL/min
Vd (clinical; iv, V z (volume of distribution during terminal phase), geometric mean (%CV)): ~1870 L
Vd (clinical; iv, V z, range): 1250 to 2450 L
Tmax (clinical; iv, median): 1 h
Tmax (clinical; iv, range): 0.5 to 1 h
half-life (clinical; iv, geometric mean (%CV)): 52 h
half-life (clinical; iv, range): 40 to 67 h
Total radioactivity AUC (0–t last) in blood, geometric mean (% CV) ([1]; in vivo): 558 (28.8%) ng-Eq·h/mL
Total radioactivity AUC (0–t last) in blood, range ([1]; in vivo): 347–756 ng-Eq·h/mL
Total radioactivity AUC (0–t last) in plasma, geometric mean (% CV) ([1]; in vivo): 324 (54.1%) ng-Eq·h/mL
Total radioactivity AUC (0–t last) in plasma, range ([1]; in vivo): 150–601 ng-Eq·h/mL
Total radioactivity t last in plasma, median ([1]; plasma): 60 h
Total radioactivity t max in plasma, median ([1]; plasma): 1 h
Recovery of radioactivity extractable from plasma ([1]; plasma extraction, no indication of covalent adduct formation): > 90%
Total radioactivity C max in plasma, geometric mean (% CV) ([1]; plasma, 12 mg copanlisib (2.76 MBq 14C) 1-h infusion): 45.6 (26.0%) ng-Eq/mL
Total radioactivity C max in plasma, range ([1]; plasma, range of 6 subjects): 32.1–57.6 ng-Eq/mL
Total radioactivity t last in plasma, range ([1]; plasma, range of 6 subjects): 24 to 96 h
Total radioactivity t max in plasma, range ([1]; plasma, range of 6 subjects): 0.5 to 1 h
Total radioactivity C max in blood, geometric mean (% CV) ([1]; whole blood): 83.5 (26.3%) ng-Eq/mL
Total radioactivity t last in blood, median ([1]; whole blood): 72 h
Total radioactivity t max in blood, median ([1]; whole blood): 1 h
Total radioactivity C max in blood, range [1, 3]: 59.2–114 ng-Eq/mL
Total radioactivity t last in blood, range [1, 3]: 36 to 72 h
Total radioactivity t max in blood, range [1, 3]: 0.5 to 1 h
Substrate of efflux transporter BCRP [2]: substrate
Involvement of cytochrome P450 3A4 in the primary biotransformation step (cytochrome P450 3A4): predominant involvement
PI3K-δ inhibitory activity (PI3K-δ): predominant PI3K-α and PI3K-δ inhibitory activity
